Measured values from article PMC5344255, “Design, Synthesis and Biochemical Evaluation of Novel Selective Estrogen Receptor Ligand Conjugates Incorporating an Endoxifen-Combretastatin Hybrid Scaffold” (Biomedicines, 2016).
Marks after values point to notes of the source that are not given here.

What was measured:
Assay in all cases: NCI 60 cell line screen
SNB-75 = format: cell-based, human; conditions: SNB-75 (CNS Cancer)
MALME-3M = format: cell-based, human; conditions: MALME-3M (Melanoma); one-dose 10 µM
DU-145 = format: cell-based, human; conditions: DU-145 (Prostate cancer)
MCF-7 = format: cell-based; conditions: Homo sapiens
HCT-2998 = format: cell-based, human; conditions: HCT-2998 (Colon Cancer)
M14 = format: cell-based, human; conditions: M14 (Melanoma); one-dose 10 µM

## CCC(=C(c1ccc(O)cc1)c1ccc(OCCN(C)C(=O)/C(=C/c2ccc(OC)c(O)c2)c2cc(OC)c(OC)c(OC)c2)cc1)c1ccc(O)cc1 (mixture of isomers) [Compound 28, (E)-N-(2-{4-[(E/Z)-1,2-Bis-(4-hydroxyphenyl)but-1-enyl]-phenoxy}ethyl)-3-(3-hydroxy-4-methoxyphenyl)-N-methyl-2-(3,4,5-trimethoxyphenyl)acrylamide]
SNB-75; Homo sapiens, five-dose screen
  GI50: 5.96 µM
SNB-75; one-dose 10 µM
  GI% (10^−5 M): 60.65%
MALME-3M
  GI% (10^−5 M): 1.76%
DU-145; one-dose 10 µM
  GI% (10^−5 M): 100 ^d,o %
DU-145; Homo sapiens, five-dose screen
  GI50: 1.66 µM
MCF-7; MCF7, read-out: GI50 (IC50)
  IC50: 0.0095 µM
MCF-7; MCF7, MCF-7, five-dose screen, read-out: LC50 (the source's name)
  CC50: > 50 µM
HCT-2998; one-dose 10 µM
  GI% (10^−5 M): 100 ^d,j %
HCT-2998; Homo sapiens, 60 cell, five-dose screen
  GI50: 1.25 µM
M14
  GI% (10^−5 M): 1.68%
